From ChEMBL document CHEMBL1909046, “DrugMatrix in vitro pharmacology data” come the findings set out here.

pIC50, pKi: −log10 of the molar value.

The target in one assay is Nitric oxide synthase 1 (Rattus norvegicus, UniProt P29476). The format is tissue-based, Cerebellum. Also: in other assays of this panel Not Active means under 50% inhibition at 10 µM.
A further assay has as its target D(1A) dopamine receptor (Homo sapiens, UniProt P21728). Nature of the assay: DRUGMATRIX: Dopamine D1 radioligand binding (ligand: [3H] SCH-23390). As to conditions: Not Active = under 50% inhibition at 10 µM; for IC50: cho. The format is cell membranes, CHO, Membrane.
Assay [1] is described as follows: DRUGMATRIX: Potassium Channel [KATP] radioligand binding (ligand: [3H] Glyburide). The format is cell membranes, Membrane. As to conditions: hit-t15; Not Active = under 50% inhibition at 10 µM.
Assay [2] concerns the target T1, Vasoactive intestinal polypeptide receptor 1 (Homo sapiens, UniProt P32241). Also: in other assays of this panel Not Active means under 50% inhibition at 10 µM.
T1 sequence (P32241 whole entry): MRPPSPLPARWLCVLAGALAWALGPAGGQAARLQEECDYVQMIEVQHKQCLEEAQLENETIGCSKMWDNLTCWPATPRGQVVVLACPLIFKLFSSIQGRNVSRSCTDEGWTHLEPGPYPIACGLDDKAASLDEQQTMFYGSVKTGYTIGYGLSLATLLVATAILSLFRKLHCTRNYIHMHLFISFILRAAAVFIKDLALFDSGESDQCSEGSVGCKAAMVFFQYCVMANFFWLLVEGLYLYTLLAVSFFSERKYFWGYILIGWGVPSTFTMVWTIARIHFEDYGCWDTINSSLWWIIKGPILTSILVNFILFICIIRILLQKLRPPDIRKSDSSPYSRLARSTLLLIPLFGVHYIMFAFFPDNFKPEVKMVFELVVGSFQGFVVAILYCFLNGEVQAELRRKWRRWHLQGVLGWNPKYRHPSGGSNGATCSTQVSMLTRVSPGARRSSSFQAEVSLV
The format is cell membranes, Membrane. As to conditions: ht-29.

A further assay concerns the target Glycine receptor (Rattus norvegicus, UniProt P22771+P24524+P07727+P20781). The format is cell membranes, Wistar, Spinal cord, Membrane. Also: in other assays of this panel Not Active means under 50% inhibition at 10 µM.
In the next assay the target is T2, Endothelin-1 receptor (Homo sapiens, UniProt P25101). Also: in other assays of this panel Not Active means under 50% inhibition at 10 µM.
T2 sequence (P25101 whole entry): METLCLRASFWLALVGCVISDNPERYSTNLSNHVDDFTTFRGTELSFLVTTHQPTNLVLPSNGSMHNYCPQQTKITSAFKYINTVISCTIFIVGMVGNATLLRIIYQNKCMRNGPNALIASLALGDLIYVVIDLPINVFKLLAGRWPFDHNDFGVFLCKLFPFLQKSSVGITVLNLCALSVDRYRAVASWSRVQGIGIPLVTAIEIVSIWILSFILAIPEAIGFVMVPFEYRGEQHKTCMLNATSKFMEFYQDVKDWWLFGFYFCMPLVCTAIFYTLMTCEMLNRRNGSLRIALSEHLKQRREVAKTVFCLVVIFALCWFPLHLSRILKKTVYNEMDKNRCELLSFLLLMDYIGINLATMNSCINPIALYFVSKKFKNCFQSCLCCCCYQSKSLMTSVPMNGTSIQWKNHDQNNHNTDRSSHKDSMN
The format is cell membranes, Membrane. As to conditions: cho-k1.

Assay [3] addresses Vascular endothelial growth factor receptor 1 (Homo sapiens, UniProt P17948). The format is cell-based. As to conditions: huvec.
The target in a further assay is T3, D(4) dopamine receptor (Homo sapiens, UniProt P21917).
T3 sequence (P21917 whole entry): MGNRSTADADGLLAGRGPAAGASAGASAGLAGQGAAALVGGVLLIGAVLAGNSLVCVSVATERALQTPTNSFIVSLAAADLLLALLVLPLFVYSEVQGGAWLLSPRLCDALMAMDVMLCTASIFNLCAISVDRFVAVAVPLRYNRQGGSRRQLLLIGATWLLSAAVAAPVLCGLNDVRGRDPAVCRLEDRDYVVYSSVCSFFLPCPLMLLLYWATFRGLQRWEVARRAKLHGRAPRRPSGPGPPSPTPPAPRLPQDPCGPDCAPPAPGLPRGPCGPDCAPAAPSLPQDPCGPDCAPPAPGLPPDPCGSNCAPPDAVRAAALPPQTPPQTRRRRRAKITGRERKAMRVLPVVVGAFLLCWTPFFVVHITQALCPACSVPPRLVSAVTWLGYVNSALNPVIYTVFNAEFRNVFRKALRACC
The assay can be described thus: DRUGMATRIX: Dopamine D4.2 radioligand binding (ligand: [3H] Spiperone). The format is cell membranes, CHO-K1, Membrane. As to conditions: cho-k1; Not Active = under 50% inhibition at 10 µM.

Chain of Vascular endothelial growth factor receptor 1 (P17948 whole entry): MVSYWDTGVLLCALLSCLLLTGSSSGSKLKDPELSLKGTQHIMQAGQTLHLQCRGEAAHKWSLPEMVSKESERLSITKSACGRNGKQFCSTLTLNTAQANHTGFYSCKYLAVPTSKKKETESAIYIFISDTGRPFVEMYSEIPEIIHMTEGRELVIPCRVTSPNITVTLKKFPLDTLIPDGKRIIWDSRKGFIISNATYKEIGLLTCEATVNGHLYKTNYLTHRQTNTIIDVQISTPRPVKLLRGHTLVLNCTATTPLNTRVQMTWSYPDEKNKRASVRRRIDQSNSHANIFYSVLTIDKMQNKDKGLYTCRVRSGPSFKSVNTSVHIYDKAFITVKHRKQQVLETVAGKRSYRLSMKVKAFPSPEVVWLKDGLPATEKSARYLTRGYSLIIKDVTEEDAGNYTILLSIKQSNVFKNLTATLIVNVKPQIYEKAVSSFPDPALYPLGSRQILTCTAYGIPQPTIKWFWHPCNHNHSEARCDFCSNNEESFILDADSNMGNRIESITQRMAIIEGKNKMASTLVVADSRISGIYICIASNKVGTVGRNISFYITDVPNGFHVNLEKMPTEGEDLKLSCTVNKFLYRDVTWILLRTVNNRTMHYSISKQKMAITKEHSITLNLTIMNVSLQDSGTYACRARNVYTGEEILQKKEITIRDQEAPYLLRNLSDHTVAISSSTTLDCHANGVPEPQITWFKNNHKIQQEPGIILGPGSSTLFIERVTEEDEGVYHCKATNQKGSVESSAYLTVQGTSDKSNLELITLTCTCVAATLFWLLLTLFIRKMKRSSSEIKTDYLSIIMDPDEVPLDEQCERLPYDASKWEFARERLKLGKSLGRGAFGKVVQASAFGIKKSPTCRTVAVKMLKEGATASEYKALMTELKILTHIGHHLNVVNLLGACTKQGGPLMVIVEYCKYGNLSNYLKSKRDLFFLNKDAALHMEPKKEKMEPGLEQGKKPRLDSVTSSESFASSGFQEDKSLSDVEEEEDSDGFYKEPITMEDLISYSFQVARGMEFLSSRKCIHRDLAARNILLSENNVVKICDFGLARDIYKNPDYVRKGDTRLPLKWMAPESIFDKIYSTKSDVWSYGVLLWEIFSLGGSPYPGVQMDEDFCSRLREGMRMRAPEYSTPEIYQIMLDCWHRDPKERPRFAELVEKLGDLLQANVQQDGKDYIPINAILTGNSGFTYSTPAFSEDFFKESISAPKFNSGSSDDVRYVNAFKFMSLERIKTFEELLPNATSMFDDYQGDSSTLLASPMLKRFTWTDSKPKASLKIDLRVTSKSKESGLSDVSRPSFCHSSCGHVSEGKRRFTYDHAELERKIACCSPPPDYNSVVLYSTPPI
Chain of Nitric oxide synthase 1 (P29476 whole entry): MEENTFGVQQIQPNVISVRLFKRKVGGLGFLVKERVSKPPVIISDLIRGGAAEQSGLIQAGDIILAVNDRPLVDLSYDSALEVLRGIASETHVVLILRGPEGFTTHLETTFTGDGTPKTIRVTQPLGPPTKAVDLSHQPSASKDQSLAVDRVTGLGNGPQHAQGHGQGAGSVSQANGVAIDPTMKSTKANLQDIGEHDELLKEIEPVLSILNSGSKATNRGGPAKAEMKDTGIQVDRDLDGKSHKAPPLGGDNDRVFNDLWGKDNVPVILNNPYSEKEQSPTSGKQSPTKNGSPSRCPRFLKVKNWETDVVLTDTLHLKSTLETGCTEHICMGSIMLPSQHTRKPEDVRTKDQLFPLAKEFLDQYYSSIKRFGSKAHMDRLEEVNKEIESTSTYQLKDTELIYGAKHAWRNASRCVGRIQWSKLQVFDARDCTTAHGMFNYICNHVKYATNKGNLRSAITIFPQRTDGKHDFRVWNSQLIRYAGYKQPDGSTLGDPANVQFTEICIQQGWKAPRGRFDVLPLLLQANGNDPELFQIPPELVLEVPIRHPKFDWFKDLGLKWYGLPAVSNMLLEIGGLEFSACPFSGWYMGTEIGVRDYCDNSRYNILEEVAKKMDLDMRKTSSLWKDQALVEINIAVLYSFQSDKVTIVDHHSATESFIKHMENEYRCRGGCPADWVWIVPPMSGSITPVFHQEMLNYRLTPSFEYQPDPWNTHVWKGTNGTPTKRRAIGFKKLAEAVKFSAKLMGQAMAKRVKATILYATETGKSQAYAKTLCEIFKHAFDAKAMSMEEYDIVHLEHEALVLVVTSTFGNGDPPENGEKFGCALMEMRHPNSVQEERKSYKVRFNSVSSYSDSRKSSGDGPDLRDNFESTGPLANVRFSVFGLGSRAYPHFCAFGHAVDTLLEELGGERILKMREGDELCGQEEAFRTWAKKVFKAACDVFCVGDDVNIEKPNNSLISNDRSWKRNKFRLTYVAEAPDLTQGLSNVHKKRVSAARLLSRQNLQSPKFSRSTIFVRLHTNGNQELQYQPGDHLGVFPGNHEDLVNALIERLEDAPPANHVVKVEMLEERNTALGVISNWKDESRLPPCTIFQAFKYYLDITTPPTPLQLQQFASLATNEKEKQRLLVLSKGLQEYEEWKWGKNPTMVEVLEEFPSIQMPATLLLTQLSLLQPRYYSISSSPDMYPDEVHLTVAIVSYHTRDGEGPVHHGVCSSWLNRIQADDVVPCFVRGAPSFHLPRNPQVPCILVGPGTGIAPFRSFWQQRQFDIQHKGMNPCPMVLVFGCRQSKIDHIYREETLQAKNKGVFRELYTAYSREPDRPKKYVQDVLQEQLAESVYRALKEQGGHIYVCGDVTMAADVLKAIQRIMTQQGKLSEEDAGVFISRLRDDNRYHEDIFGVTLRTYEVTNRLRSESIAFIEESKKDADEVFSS
Chain of D(1A) dopamine receptor (P21728 whole entry): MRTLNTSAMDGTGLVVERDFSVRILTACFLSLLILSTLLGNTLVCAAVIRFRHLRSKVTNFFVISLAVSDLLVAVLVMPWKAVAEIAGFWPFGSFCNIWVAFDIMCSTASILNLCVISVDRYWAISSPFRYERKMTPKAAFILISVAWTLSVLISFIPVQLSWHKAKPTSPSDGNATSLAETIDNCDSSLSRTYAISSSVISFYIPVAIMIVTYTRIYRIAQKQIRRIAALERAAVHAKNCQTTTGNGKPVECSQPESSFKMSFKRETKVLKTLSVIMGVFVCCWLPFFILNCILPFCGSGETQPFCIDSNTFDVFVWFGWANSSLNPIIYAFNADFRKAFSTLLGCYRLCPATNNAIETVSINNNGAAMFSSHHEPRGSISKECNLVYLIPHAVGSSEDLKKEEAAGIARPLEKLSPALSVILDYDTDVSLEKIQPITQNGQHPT

Consider `Cc1c(N)nc([C@H](CC(N)=O)NC[C@H](N)C(N)=O)nc1C(=O)N[C@H](C(=O)N[C@H](C)[C@@H](O)[C@H](C)C(=O)N[C@H](C(=O)NCCc1nc(-c2nc(C(=O)NCCC[S+](C)C)cs2)cs1)[C@@H](C)O)[C@@H](O[C@@H]1O[C@@H](CO)[C@@H](O)[C@H](O)[C@@H]1O[C@H]1O[C@H](CO)[C@@H](O)[C@H](OC(N)=O)[C@@H]1O)c1c[nH]cn1.[Br-]` [BLEOMYCIN A2], for which the IC50 result (on Nitric oxide synthase 1; at D(1A) dopamine receptor; in assay [1]; in assay [2]; against Glycine receptor; against Endothelin-1 receptor) was “Not Active” each time. Also, the IC50 result (in assay [3]; at D(4) dopamine receptor) was “Not Active” each time. The Ki entry in assay [1] was “Not Active”.

For `CC(C)Cc1ccc([C@H](C)C(=O)O)cc1` [DEXIBUPROFEN], the IC50 result (on Nitric oxide synthase 1; at D(1A) dopamine receptor; in assay [1]; in assay [2]; against Glycine receptor; at Endothelin-1 receptor) was “Not Active” each time. In addition, the IC50 result (in assay [3]; on D(4) dopamine receptor) was “Not Active” in each case. Further, the Ki result in assay [1] is “Not Active”.

In the case of `NS(=O)(=O)c1cc(C(=O)O)c(NCc2ccco2)cc1Cl` [FUROSEMIDE], the IC50 result (on Nitric oxide synthase 1; at D(1A) dopamine receptor; in assay [1]; in assay [2]; at Glycine receptor; against Endothelin-1 receptor) was “Not Active” in each case. Moreover, the IC50 result (in assay [3]; on D(4) dopamine receptor) was “Not Active” each time. The Ki entry in assay [1] is recorded as “Not Active”.

Turning to `C[C@H]1C[C@H]2[C@@H]3CCC4=CC(=O)C=C[C@]4(C)[C@@]3(F)[C@@H](O)C[C@]2(C)[C@@]1(O)C(=O)CO` [BETAMETHASONE], the IC50 result (at Nitric oxide synthase 1; at D(1A) dopamine receptor; in assay [1]; in assay [2]; at Glycine receptor; against Endothelin-1 receptor) was “Not Active” throughout. Also, the IC50 entry (in assay [3]; at D(4) dopamine receptor) was “Not Active” in each case. Also, in assay [1], the Ki entry is “Not Active”.

In the case of `COC(=O)C[C@](O)(CCC(C)(C)O)C(=O)O[C@@H]1C(OC)=C[C@]23CCCN2CCc2cc4c(cc2[C@H]13)OCO4` [HARRINGTONINE], the IC50 result (at Nitric oxide synthase 1; at D(1A) dopamine receptor; in assay [1]; in assay [2]; against Glycine receptor; on Endothelin-1 receptor) was “Not Active” each time. In addition, the IC50 result (in assay [3]; at D(4) dopamine receptor) was “Not Active” in each case. Moreover, the Ki entry in assay [1] is recorded as “Not Active”.

Take `CC(C)(c1ccc(O)cc1)c1ccc(O)cc1` [BISPHENOL A]: the IC50 entry (against Nitric oxide synthase 1; at D(1A) dopamine receptor; in assay [1]; in assay [2]; on Glycine receptor; at Endothelin-1 receptor) was “Not Active” in each case. Moreover, the IC50 result (in assay [3]; at D(4) dopamine receptor) was “Not Active” throughout. Also, the Ki result in assay [1] was “Not Active”.

Turning to `CCN1CCN(C(=O)N[C@@H](C(=O)N[C@@H]2C(=O)N3[C@@H]2SC(C)(C)[C@@H]3C(=O)O)c2ccccc2)C(=O)C1=O` [PIPERACILLIN], the IC50 result (at Nitric oxide synthase 1; at D(1A) dopamine receptor; in assay [1]; in assay [2]; against Glycine receptor; against Endothelin-1 receptor) was “Not Active” each time. The IC50 entry (in assay [3]; on D(4) dopamine receptor) was “Not Active” each time. The Ki result in assay [1] is given as “Not Active”.

In the case of `CC[C@H]1OC(=O)[C@H](C)[C@@H](O[C@H]2C[C@@](C)(OC)[C@@H](O)[C@H](C)O2)[C@H](C)[C@@H](O[C@@H]2O[C@H](C)C[C@H](N(C)C)[C@H]2O)[C@](C)(O)C[C@@H](C)C(=O)[C@H](C)[C@@H](O)[C@]1(C)O` [ERYTHROMYCIN], the IC50 result (at Nitric oxide synthase 1; on D(1A) dopamine receptor; in assay [1]; in assay [2]; on Glycine receptor; at Endothelin-1 receptor) was “Not Active” each time. Also, the IC50 result (in assay [3]; on D(4) dopamine receptor) was “Not Active” throughout. Besides, the Ki entry in assay [1] is given as “Not Active”.

Take `CN(CCOc1ccc(C[C@H](Nc2ccccc2C(=O)c2ccccc2)C(=O)O)cc1)c1ccccn1`: the IC50 result (at Nitric oxide synthase 1; at D(1A) dopamine receptor; in assay [1]; in assay [2]; at Glycine receptor; at Endothelin-1 receptor) was “Not Active” throughout. The IC50 result (in assay [3]; on D(4) dopamine receptor) was “Not Active” throughout. The Ki entry in assay [1] is listed as “Not Active”.

For `COc1cc(NC(C)CCCN)c2ncccc2c1` (stereo unspecified) [PRIMAQUINE], the IC50 entry (on Nitric oxide synthase 1; on D(1A) dopamine receptor; in assay [1]; in assay [2]; against Glycine receptor; on Endothelin-1 receptor) was “Not Active” each time. The IC50 entry (in assay [3]; at D(4) dopamine receptor) was “Not Active” throughout. Further, the Ki result in assay [1] was “Not Active”.

Consider `c1ccc2sc(SSc3nc4ccccc4s3)nc2c1` [BENZOTHIAZYL DISULFIDE], for which the IC50 entry (against Nitric oxide synthase 1; in assay [1]; in assay [2]; on Glycine receptor; at Endothelin-1 receptor; in assay [3]) was “Not Active” each time. Besides, the IC50 entry at D(4) dopamine receptor is given as “Not Active”. The pIC50 (usually −log10 of the IC50, conventionally taken in molar units) on D(1A) dopamine receptor (read-out: IC50) is 5.92. Further, the pKi (in general, the Ki on a negative log10 scale, so that one unit is a factor of ten) at D(1A) dopamine receptor (read-out: Ki) was 6.23. For the same molecule, in assay [1], the Ki result was “Not Active”.

Turning to `CC(C)(C#N)c1cc(Cn2cncn2)cc(C(C)(C)C#N)c1` [ANASTROZOLE], the IC50 entry (against Nitric oxide synthase 1; at D(1A) dopamine receptor; in assay [1]; in assay [2]; against Glycine receptor; against Endothelin-1 receptor) was “Not Active” each time. The IC50 entry (in assay [3]; at D(4) dopamine receptor) was “Not Active” in each case. Further, in assay [1], the Ki result is on record as “Not Active”.

Consider `CC(=O)[C@]1(O)Cc2c(O)c3c(c(O)c2[C@@H](O[C@H]2C[C@H](N)[C@H](O)[C@H](C)O2)C1)C(=O)c1ccccc1C3=O` [IDARUBICIN], for which the IC50 result (at Nitric oxide synthase 1; at D(1A) dopamine receptor; in assay [1]; in assay [2]; against Glycine receptor; against Endothelin-1 receptor) was “Not Active” throughout. For the same molecule, the IC50 result (in assay [3]; on D(4) dopamine receptor) was “Not Active” each time. Moreover, in assay [1], the Ki result is reported as “Not Active”.

For the molecule `O=C(O)c1ccccc1` [BENZOIC ACID], the IC50 result (on Nitric oxide synthase 1; on D(1A) dopamine receptor; in assay [1]; in assay [2]; at Glycine receptor; against Endothelin-1 receptor) was “Not Active” each time. Besides, the IC50 entry (in assay [3]; at D(4) dopamine receptor) was “Not Active” throughout. For the same molecule, the Ki entry in assay [1] is “Not Active”.

`O=C(Nc1ccc(Cl)c(Cl)c1)c1cc(Cl)cc(Cl)c1O` [3,3',4',5-TETRACHLOROSALICYLANILIDE]: the IC50 entry (against Nitric oxide synthase 1; on D(1A) dopamine receptor; in assay [1]; in assay [2]; on Glycine receptor; against Endothelin-1 receptor) was “Not Active” in each case. Further, the IC50 result (in assay [3]; on D(4) dopamine receptor) was “Not Active” each time. Besides, the Ki entry in assay [1] is given as “Not Active”.
